According to patent US11001570B2, “6-amino-quinolinone compounds and derivatives as BCL6 inhibitors” (Boehringer Ingelheim International GmbH, priority 2016, dated 2021):

Molecular target: T1, BCL6::BCOR (Homo sapiens, UniProt P41182, C67R/C84N/C8Q)
T1 construct: BCL6 (amino acids 5 to 129, with the following changes to the natural protein); made in house; host or cells: E. coli
Test: BCL6::BCOR ULight TR-FRET assay
Type: binding
Summary of the method: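 Biotin-Avi BCL6 (aa 5–129, C8Q/C67R/C84N; E. coli), 1 nM, preincubated 30 min RT with compound (11-point fivefold series, top 100 μM) in HEPES pH 7.3 buffer; then 100 nM ULight-BCOR peptide plus 0.75 nM streptavidin-Eu added, 240 min RT. TR-FRET read, normalized to DMSO controls with/without BCL6.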

Row | SMILES | IC50 [nM]
1 | CNC(=O)COc1cc2cc(Nc3nc(N4CCC(C(=O)N(C)CCOCCN)CC4)ncc3Cl)ccc2n(C)c1=O [Compound I-143] | 6
2 | CNC(=O)COc1cc2cc(Nc3nc(N4CCC(C(=O)NCCOCCN)CC4)ncc3Cl)ccc2n(C)c1=O [Compound I-144] | 22
3 | CNC(=O)COc1cc2cc(Nc3nc(N4CCC(C(=O)NCCCCCN)CC4)ncc3Cl)ccc2n(C)c1=O [Compound I-145] | 6
4 | CNC(=O)COc1cc2cc(Nc3nc(N4CCC(C(=O)NCCCCCCN)CC4)ncc3Cl)ccc2n(C)c1=O [Compound I-146] | 6
5 | CNC(=O)COc1cc2cc(Nc3nc(N4CCC(C(=O)NCCOCCOCCN)CC4)ncc3Cl)ccc2n(C)c1=O [Compound I-147] | 5
6 | CNC(=O)COc1cc2cc(Nc3nc(N4CCC(C(=O)N(C)C)CC4)ncc3Cl)cc(OC)c2n(C)c1=O [Compound I-148, 1-[5-chloro-4-({8-methoxy-1-methyl-3-[(methylcarbamoyl)methoxy]-2-oxo-1,2-dihydroquinolin-6-yl}amino)pyrimidin-2-yl]-N,N-dimethylpiperidine-4-carboxamide] | 3
7 | CNC(=O)COc1cc2cc(Nc3nc(-n4nc(C)cc4C)ncc3Cl)ccc2n(C)c1=O [Compound I-149, 2-[(6-{[5-chloro-2-(3,5-dimethyl-1H-pyrazol-1-yl)pyrimidin-4-yl]amino}-1-methyl-2-oxo-1,2-dihydroquinolin-3-yl)oxy]-N-methylacetamide] | 12
8 | C[C@@H]1C[C@H](C)CN(c2ncc(Cl)c(Nc3ccc4c(c3)cc(SCC(=O)O)c(=O)n4C)n2)C1 [Compound I-150, 2-{[6-({5-chloro-2-[cis-3,5-dimethylpiperidin-1-yl]pyrimidin-4-yl}amino)-1-methyl-2-oxo-1,2-dihydroquinolin-3-yl]sulfanyl}acetic acid] | 85
9 | CNC(=O)COc1cc2cc(Nc3nc(N4CCC(C(=O)N(C)C)CC4)ncc3Cl)ccc2n(CCCO)c1=O [Compound I-151, 1-(5-chloro-4-{[1-(3-hydroxypropyl)-3-[(methyl-carbamoyl)methoxy]-2-oxo-1,2-dihydroquinolin-6-yl]amino}pyrimidin-2-yl)-N,N-dimethyl-piperidine-4-carboxamide] | 6
10 | CN(C)C(=O)C1CCN(c2ncc(Cl)c(Nc3ccc4c(c3)cc(OCC(=O)O)c(=O)n4C)n2)CC1 [Compound I-152, 2-{[6-({5-chloro-2-[4-(dimethylcarbamoyl)piperidin-1-yl]pyrimidin-4-yl}amino)-1-methyl-2-oxo-1,2-dihydroquinolin-3-yl]oxy}acetic acid] | 5
11 | Cc1cc(C)n(-c2ncc(Cl)c(Nc3ccc4c(c3)cc(OCC(=O)O)c(=O)n4C)n2)n1 [Compound I-153, 2-[(6-{[5-chloro-2-(3,5-dimethyl-1H-pyrazol-1-yl)pyrimidin-4-yl]amino}-1-methyl-2-oxo-1,2-dihydroquinolin-3-yl)oxy]acetic acid] | 11
12 | CNC(=O)COc1cc2cc(Nc3nc(N4C[C@H](C)C[C@H](C)C4)ncc3Cl)cnc2n(C)c1=O [Compound I-155] | 9
13 | CNC(=O)COc1cc2cc(Nc3nc(N4CCC(C(=O)N(C)C)CC4)ncc3Cl)c(F)cc2n(C)c1=O [Compound I-156] | 19
14 | CNC(=O)COc1cc2cc(Nc3nc(N4CCC(C(=O)N(C)C)CC4)ncc3Cl)ccc2n(C)c1=O [Compound I-157] | 5
15 | CNC(=O)COc1cc2cc(Nc3nc(N4CCC(C(=O)N(C)C)CC4)ncc3Cl)ccc2n(C(C)C)c1=O [Compound I-158] | 6
16 | CNC(=O)COc1cc2cc(Nc3nc(N4C[C@H](C)C[C@H](C)C4)ncc3Cl)ccc2n(CCN(C)C)c1=O [Compound I-159] | 85
17 | CCn1c(=O)c(OCC(=O)NC)cc2cc(Nc3nc(-n4nc(C)cc4C)ncc3Cl)ccc21 [Compound I-160] | 7

Row | SMILES | IC50 [nM]
18 | CCn1c(=O)c(OCC(=O)NC)cc2cc(Nc3nc(N4CCC(C(=O)N(C)C)CC4)ncc3Cl)ccc21 [Compound I-161] | 5
19 | CNC(=O)[C@@H](C)Oc1cc2cc(Nc3nc(N4CCC(C(=O)N(C)C)CC4)ncc3Cl)ccc2n(C)c1=O [Compound I-162] | 98
20 | CNC(=O)COc1cc2cc(Nc3nc(N4CCC(C(=O)N(C)C)CC4)ncc3Cl)c(OC)cc2n(C)c1=O [Compound I-163] | 60
21 | CNC(=O)COc1cc2cc(Nc3nc(N4CCC(C(=O)N(C)C)CC4)ncc3Cl)c(Cl)cc2n(C)c1=O [Compound I-164] | 281
22 | C[C@@H]1C[C@H](C)CN(c2ncc(Cl)c(Nc3ccc4c(c3)cc(/C=C/C(=O)O)c(=O)n4C)n2)C1 [Compound I-165] | 22
23 | CNC(=O)COc1cc2cc(Nc3nc(-n4nc(C(=O)N5CCN(C)CC5)cc4C)ncc3Cl)ccc2n(C)c1=O [Compound I-166, 2-{[6-({5-chloro-2-[5-methyl-3-(4-methylpiperazine-1-carbonyl)-1H-pyrazol-1-yl]pyrimidin-4-yl}amino)-1-methyl-2-oxo-1,2-dihydroquinolin-3-yl]oxy}-N-methylacetamide] | 16
24 | CNC(=O)COc1cc2cc(Nc3nc(N4CCC[C@@H](C(=O)O)C4)ncc3Cl)ccc2n(C)c1=O [Compound I-167, (3R)-1-[5-chloro-4-({1-methyl-3-[(methylcarbamoyl)methoxy]-2-oxo-1,2-dihydroquinolin-6-yl}-amino)pyrimidin-2-yl]piperidine-3-carboxylic acid] | 4
25 | CNC(=O)COc1cc2cc(Nc3nc(N4CCC[C@@H](C(=O)N(C)C)C4)ncc3Cl)ccc2n(C)c1=O [Compound I-168, (3R)-1-[5-chloro-4-({1-methyl-3-[(methylcarbamoyl)methoxy]-2-oxo-1,2-dihydroquinolin-6-yl}amino)pyrimidin-2-yl]-N,N-dimethylpiperidine-3-carboxamide] | 6
26 | CNC(=O)COc1cc2cc(Nc3nc(N4CCC[C@@H](C(=O)N5CCN(C)CC5)C4)ncc3Cl)ccc2n(C)c1=O [Compound I-169] | 6
27 | CNC(=O)COc1cc2cc(Nc3nc(N4CCC[C@@H](C(=O)N(C)C5CCN(C)CC5)C4)ncc3Cl)ccc2n(C)c1=O [Compound I-170] | 8
28 | CN(C)C(=O)COc1cc2cc(Nc3nc(N4CCC(C(=O)N(C)C)CC4)ncc3Cl)ccc2n(C)c1=O [Compound I-171] | 39
29 | C[C@@H]1C[C@H](C)CN(c2ncc(Cl)c(Nc3ccc4c(c3)cc(OCP(C)(C)=O)c(=O)n4C)n2)C1 [Compound I-172, 6-({5-chloro-2-[cis-3,5-dimethylpiperidin-1-yl]pyrimidin-4-yl}amino)-3-[(dimethylphosphoryl)-methoxy]-1-methyl-1,2-dihydroquinolin-2-one] | 187
30 | C#CCNC(=O)COc1cc2cc(Nc3nc(N4CCC(C(=O)N(C)C)CC4)ncc3Cl)ccc2n(C)c1=O [Compound I-175] | 10
31 | C[C@@H]1C[C@H](C)CN(c2ccc(Cl)c(Nc3ccc4c(c3)cc(OCC(=O)O)c(=O)n4C)n2)C1 [Compound I-176, 2-{[6-({3-chloro-6-[cis-3,5-dimethylpiperidin-1-yl]pyridin-2-yl}amino)-1-methyl-2-oxo-1,2-dihydroquinolin-3-yl]oxy}acetic acid] | 106
32 | CNC(=O)COc1cc2cc(Nc3nc(N4C[C@H](C)C[C@H](C)C4)ccc3Cl)ccc2n(C)c1=O [Compound I-177, 2-{[6-({3-chloro-6-[cis-3,5-dimethylpiperidin-1-yl]pyridin-2-yl}amino)-1-methyl-2-oxo-1,2-dihydroquinolin-3-yl]oxy}-N-methylacetamide] | 87
33 | CNC(=O)COc1cc2cc(Nc3cc(N4C[C@H](C)C[C@H](C)C4)ncc3Cl)ccc2n(C)c1=O [Compound I-178, 2-{[6-({5-chloro-2-[cis-3,5-dimethylpiperidin-1-yl]pyridin-4-yl}amino)-1-methyl-2-oxo-1,2-dihydroquinolin-3-yl]oxy}-N-methylacetamide] | 22
